The numbers were not newly measured in the CATMoS acute toxicity set (Mansouri et al. 2021), which cites them from elsewhere.

For orientation: LD50 means the dose at which mortality reaches 50%.

Several values for one entry are separate records, joined by “and”; a condition that tells them apart may be missing. Equal entries are not always repeated.

The data set in a line: rat acute oral toxicity. The settings on record: in vivo.
In the case of `C[N+]1(CCC(O)(c2ccccc2)C2CCCCC2)CCCC1` (centres undefined), the LD50 was 984 mg/kg and 985 mg/kg.

Take `CCC1(c2ccccc2)CCC(=O)NC1=O` (centres undefined): the 50% lethal dose (LD50) is 600 mg/kg. With `C/N=N/Nc1ccc([N+](=O)[O-])cc1`, the 50% lethal dose (LD50) was 468 mg/kg. Regarding `c1ccc2c(NC3=NCCS3)cccc2c1`, the LD50 was 50 mg/kg. In the case of `CCOP(=S)(OCC)SCSc1ccc(Cl)c(Cl)c1`, the LD50 was 89 mg/kg. Turning to `CNC(=O)Oc1ccc(Cl)c2c1OC(C)(C)C2`, the LD50 was 248 mg/kg.

Take `CCc1c2c(nc3ccc(OC(=O)N4CCC(N5CCCCC5)CC4)cc13)-c1cc3c(c(=O)n1C2)COC(=O)[C@]3(O)CC`: the LD50 was 867 mg/kg. Consider `C[N+]1(C)CCc2cc(Cl)ccc21`, for which the LD50 was 447 mg/kg. As for `Cc1c([N+](=O)[O-])cc(N)cc1[N+](=O)[O-]`, the LD50 was 959 mg/kg. Turning to `CC1=CCC(=C(C)C)CC1`, the LD50 is 4390 mg/kg. Take `COP(=S)(OC)Oc1cc(C)ccc1C(C)C`: the LD50 was 750 mg/kg. In the case of `CCCCOCCOCCOCCO`, the LD50 was 5300 mg/kg. For the compound `CCOC(=O)C1=CNC2CCCC(C)N2C1=O` (centres undefined), the LD50 was 2500 mg/kg.

For `O=C1CCC(c2ccc(-n3ccnc3)cc2)=NN1`, the median lethal dose (LD50) was 125 mg/kg. Consider `ClC(Cl)=C(c1ccc(Cl)cc1)c1ccccc1Cl`, for which the LD50 is 880 mg/kg. On to `CC(=O)CCc1ccc(OC(C)=O)cc1`, for which the LD50 is 3040 mg/kg. With `CCOC(=O)Nc1cccc(OC(=O)Nc2ccccc2)c1`, the 50% lethal dose (LD50) is 9600 mg/kg. As for `COP(=S)(OC)SCSc1ccc(Cl)cc1`, the 50% lethal dose (LD50) was 48 mg/kg.

In the case of `O=C(O)[C@@H]1CC[C@H](C(=O)O)C1`, the LD50 was 3250 mg/kg.

Turning to `c1cn[nH]c1`, the LD50 is 1010 mg/kg. In the case of `CCOc1ccc(Cl)cc1C(CN(C)C)C(C)CC` (centres undefined), the LD50 is 632 mg/kg.

In the case of `Cc1cc(NC(=O)c2ccccc2O)n(-c2ccccc2)n1`, the median lethal dose (LD50) was 1320 mg/kg. Turning to `O=CNc1ccc(Br)cc1`, the LD50 is 1120 mg/kg.

As for `CC(C)(C)N1CCC(c2ccccc2)(c2ccccc2)CC1`, the LD50 was 165 mg/kg.

`ClC(Cl)(Cl)c1ccc(C(Cl)(Cl)Cl)cc1`: the LD50 is 3200 mg/kg. For `FC(F)(F)c1ccc(Cl)cc1Cl`, the LD50 is 2150 mg/kg. `CC[N+]1(C)[C@@H]2C[C@@H](OC(=O)[C@H](CO)c3ccccc3)C[C@H]1[C@@H]1O[C@@H]12` (some centres undefined): the LD50 is 2250 mg/kg. Regarding `CCCCCCCNC(=O)Oc1ccc2c(c1)C1(C)CCN(C)C1N2C` (centres undefined), the LD50 was 25.1 mg/kg. Regarding `CCOc1ccc(C(=O)NCc2ccc(OCCNC)cc2)cc1OCC`, the LD50 was 3000 mg/kg. With `N#C/C(=C1\SCC(c2ccccc2Cl)S1)n1ccnc1` (centres undefined), the LD50 was 652 mg/kg. Take `ClCc1cccc(Oc2ccccc2)c1`: the LD50 is 1220 mg/kg. As to `CC[C@@H](CO)NC(=O)[C@@H]1C=C2c3cccc4c3c(cn4C)C[C@H]2N(C)C1`, the median lethal dose (LD50) is 2100 mg/kg. Turning to `ClC(Cl)(Cl)Sn1cccn1`, the 50% lethal dose (LD50) was 350 mg/kg. For the compound `O=C(O)c1cccc(O)c1O`, the LD50 is 1800 mg/kg. Consider `NS(=O)(=O)c1ccc(Cl)c(S(N)(=O)=O)c1`, for which the LD50 is 340 mg/kg. As for `CCNc1nc(Cl)nc(N(CC)CC)n1`, the LD50 is 594 mg/kg. Turning to `Oc1cc2c3c(c1)c1cc4c(cc1c[n+]3CC2)OCO4`, the LD50 was 90 mg/kg. As for `Cc1ccc2[nH]c(C(F)(F)F)nc2c1Br`, the LD50 is 64 mg/kg. For the compound `CC(C=O)CCC(C)(O)C=O` (centres undefined), the LD50 is 5890 mg/kg. In the case of `CC(C)(C)OOC(=O)C(C)(C)C`, the LD50 is 4300 mg/kg. Regarding `Cc1ccc(C(C)(C)C)cc1`, the LD50 was 1560 mg/kg. In the case of `Nc1ccc2c(S(=O)(=O)O)cccc2c1S(=O)(=O)O`, the LD50 was 5430 mg/kg.

`O=NN1CCOCC1`: the LD50 is 282 mg/kg.

Take `CN(C)C(=O)c1nc(CNC(=O)CN)n(-c2ccc(Cl)cc2C(=O)c2ccccc2Cl)n1`: the LD50 was 680 mg/kg.

`CN(C)CCn1c2ccccc2c(=O)c2c([N+](=O)[O-])cccc21`: the LD50 is 41 mg/kg. For the compound `CNC(=O)CSP(O)(=S)OC` (centres undefined), the LD50 was 1500 mg/kg. With `O=[N+]([O-])c1cc[n+]([O-])cc1`, the LD50 was 107 mg/kg. Turning to `c1ccc(N2CCOCC2)cc1`, the LD50 is 930 mg/kg.

On to `CCOP(=S)(OCC)SC(=O)CN(C)C(N)=O`, for which the LD50 is 16 mg/kg.

With `CN1CCc2ccccc21`, the LD50 is 1250 mg/kg. On to `O=C1C=CC(=O)N1CCCCCCN1C(=O)C=CC1=O`, for which the LD50 was 550 mg/kg.

With `FC(F)(F)c1nc2ccc(Cl)cc2[nH]1`, the LD50 is 6.82 mg/kg. On to `C[Si](Cn1cncn1)(c1ccc(F)cc1)c1ccc(F)cc1`, for which the LD50 is 674 mg/kg. Consider `CCN(CCCCCCOC(=O)c1ccc(OC)c(OC)c1)C1CCc2cc(OC)c(OC)cc2C1` (centres undefined), for which the LD50 is 561 mg/kg. As for `CC(C)CC(=O)CC1(C)CCC(c2ccoc2)O1` (centres undefined), the LD50 was 350 mg/kg. As for `COP(=S)(OC)Oc1cc(Cl)c(I)cc1Cl`, the LD50 was 2330 mg/kg. Consider `CC(=O)c1ccc(C(O)C(CO)NC(=O)C(Cl)Cl)cc1` (centres undefined), for which the LD50 is 1100 mg/kg.

As for `CCN(CCC#N)c1ccccc1`, the LD50 is 4840 mg/kg. In the case of `Nc1ccc2c(c1)C(=O)NC(CCCl)O2` (centres undefined), the 50% lethal dose (LD50) was 1960 mg/kg. Take `OCC(O)Oc1ccc(Cl)cc1Cl` (centres undefined): the LD50 was 1070 mg/kg. With `O=[N+]([O-])c1cc([N+](=O)[O-])c(Cl)c(S(=O)(=O)O)c1`, the LD50 was 1460 mg/kg. `CC1(C)CC2(NC(=O)N(CCCN3CCC(O)CC3)C2=O)c2cc(F)ccc2O1` (centres undefined): the LD50 is 780 mg/kg. Consider `Cc1nc2ccccc2c(=O)n1-c1ccccc1C(=O)O`, for which the 50% lethal dose (LD50) is 1550 mg/kg. As for `CCOc1ccc(Cl)cc1C(CN1CCCCC1)C(C)CC` (centres undefined), the 50% lethal dose (LD50) was 445 mg/kg.

For the compound `CCN(CC)CCOc1ccc(C(=C(Cl)c2ccccc2)c2ccccc2)cc1`, the LD50 is 5750 mg/kg. As for `Cc1cn([C@H]2C[C@H](N=[N+]=[N-])[C@@H](CO)O2)c(=O)[nH]c1=O`, the LD50 was 3080 mg/kg.

As for `c1ccc(N(CCN2CCCCC2)Cc2ccccn2)cc1`, the LD50 was 806 mg/kg and 740 mg/kg. Take `C=C(Cl)C(OC(C)=O)OC(C)=O`: the 50% lethal dose (LD50) is 320 mg/kg. As to `C[N+]1(CCN(C2CCCCC2)C2CCCCC2)CCCCC1`, the LD50 is 650 mg/kg.

With `CC(C)(C)c1ccc(OCC(O)COc2ccc(C(=O)O)cc2)cc1` (centres undefined), the LD50 is 2400 mg/kg. For the compound `CCCCCCCCc1ccc(-c2ccccc2)cc1`, the median lethal dose (LD50) was 2400 mg/kg. Turning to `CC(=O)OCCOCCOCCOC(C)=O`, the LD50 was 15600 mg/kg.

`NN1C(=O)CC(c2cccc(Br)c2)C1=O` (centres undefined): the LD50 was 1600 mg/kg.

Take `CC1(C)[C@H](C=C(Cl)Cl)[C@H]1C(=O)OCc1c(F)c(F)c(F)c(F)c1F`: the LD50 is 85 mg/kg. With `Cc1cccc(C)c1N(C(=O)CCl)C1CCOC1=O` (centres undefined), the LD50 was 2600 mg/kg. For the compound `CN1CCN(C2=Nc3ccccc3Cc3ccccc32)CC1`, the LD50 is 660 mg/kg. On to `CC(C)(C)CC(C)(C)Nc1ncnc(N(CCCCCCNC2CC(C)(C)NC(C)(C)C2)C2CC(C)(C)NC(C)(C)C2)n1`, for which the LD50 is 9910 mg/kg. Take `CCOP(=O)(OCC)ON=C(C1CC1)C1CC1`: the median lethal dose (LD50) was 7.85 mg/kg.

Turning to `COCCN1C(=O)C2C3C=C(C(O)(c4ccccc4)c4ccccn4)C(C3=C(c3ccccc3)c3ccccn3)C2C1=O` (centres undefined), the LD50 was 9 mg/kg. Consider `Oc1c(I)cc(I)c(O)c1I`, for which the LD50 was 8200 mg/kg. Consider `CC(C)NNCS(=O)(=O)O`, for which the LD50 was 330 mg/kg. For `NC(=O)CCCCC1CCSS1` (centres undefined), the LD50 is 1980 mg/kg. Consider `CCCOC(=O)c1cc(O)c(O)c(O)c1`, for which the LD50 was 2100 mg/kg. On to `CCOC(O)C(Cl)(Cl)Cl` (centres undefined), for which the LD50 is 880 mg/kg. For `CC(C)OCCCO`, the LD50 is 4000 mg/kg. `CCOC(=S)C=Cc1ccc(Cl)cc1`: the LD50 was 950 mg/kg. As for `c1cncc(C2CCCCN2)c1` (centres undefined), the LD50 is 210 mg/kg and 235 mg/kg.

With `CCOc1ccccc1OCC(O)CNCCNCC(O)COc1ccccc1OCC` (centres undefined), the LD50 was 560 mg/kg. `CCOC(C)CO` (centres undefined): the LD50 is 7110 mg/kg. In the case of `CNC(=O)ON=C1CCCC1(C)C#N` (centres undefined), the LD50 is 18 mg/kg. On to `CC(C)COC(=O)C(C)C`, for which the LD50 was 12800 mg/kg. In the case of `CC(C)[C@@]1(NC(=O)[C@@H]2C[C@@H]3c4cccc5[nH]cc(c45)C[C@H]3N(C)C2)O[C@@]2(O)[C@@H]3CCCN3C(=O)[C@H](Cc3ccccc3)N2C1=O`, the LD50 is 2640 mg/kg. On to `Cc1cc(=O)n(CSP(=S)(OC(C)C)OC(C)C)nc1Cl`, for which the LD50 was 110 mg/kg. As to `Cc1oncc1C(=O)Nc1ccc(C(F)(F)F)cc1`, the LD50 was 235 mg/kg. Turning to `O=C(SCc1ccccc1)N1CCOCC1`, the LD50 was 50 mg/kg.

For the compound `Cc1ccc(N)c(S(=O)(=O)O)c1`, the LD50 was 11700 mg/kg. As to `CCOP(=S)(OCC)Oc1cc(Cl)c(I)cc1Cl`, the LD50 is 140 mg/kg.

`CC(C)(C)OC(=O)CCl`: the LD50 is 380 mg/kg. Take `C=CCc1cc(OC)c2c(c1)OCO2`: the LD50 was 4260 mg/kg. Consider `O[C@@H](c1cc(C(F)(F)F)nc2c(Cl)cc(Cl)cc12)[C@@H]1CCCCN1`, for which the LD50 is 1130 mg/kg. For `CN1CCN(CCCN2c3ccccc3Sc3ccccc32)CC1`, the LD50 is 1380 mg/kg and 500 mg/kg.

For `CCCCCOc1ccc(Br)cc1COCCN(CC)CC`, the LD50 was 320 mg/kg.

In the case of `CN(C)C(=O)Nc1cccc(OC(F)(F)C(F)F)c1`, the LD50 is 1260 mg/kg. `COC(C)CC(OC)OC` (centres undefined): the LD50 is 1480 mg/kg. `CC1OCN=C(c2ccccc2)S1` (centres undefined): the LD50 was 655 mg/kg. With `O=C(O)c1cc(Cl)ccc1O`, the LD50 was 250 mg/kg.

Consider `CCOP(=S)(OCC)SC(CCl)N1C(=O)c2ccccc2C1=O` (centres undefined), for which the LD50 is 5 mg/kg. Consider `O=C(Cc1ccccc1)OCCc1ccccc1`, for which the LD50 was 15000 mg/kg. On to `CC(Cl)CCl` (centres undefined), for which the LD50 is 1950 mg/kg.

Consider `COP(=S)(OC)SCSCC=C(Cl)Cl`, for which the 50% lethal dose (LD50) was 85 mg/kg. Regarding `O=C(C(F)(F)Cl)C(F)(F)Cl`, the LD50 was 61 mg/kg. `CC(=O)OC1c2cccc(O)c2C(=O)c2c(O)cccc21`: the LD50 was 347 mg/kg. As to `CCCCOC(=O)COC(=O)c1ccccc1C(=O)OCCCC`, the LD50 was 7000 mg/kg. Consider `C=CC[C@@H]1C=C(C)C[C@H](C)C[C@H](OC)[C@H]2O[C@@](O)(C(=O)C(=O)N3CCCC[C@H]3C(=O)O[C@H](/C(C)=C/[C@@H]3CC[C@@H](O)[C@H](OC)C3)[C@H](C)[C@@H](O)CC1=O)[C@H](C)C[C@@H]2OC`, for which the LD50 is 134 mg/kg. Take `N#CC(Cl)CCl` (centres undefined): the LD50 is 22 mg/kg. Take `CCN(CC)C(=O)CCC(C)=O`: the LD50 is 4760 mg/kg.

Consider `CN(C)CC/C=C1\c2ccccc2COc2ccccc21`, for which the LD50 is 147 mg/kg.

`CCOP(=O)(OC=C(Cl)Cl)OCCCl` (centres undefined): the LD50 is 5 mg/kg. For `CCOP(=O)(N=C1SCCS1)OCC`, the LD50 is 8.9 mg/kg.
